Here are results for 17 molecules from publication PMC8998978, “Toward a Treatment of Cancer: Design and In Vitro/In Vivo Evaluation of Uncharged Pyrazoline Derivatives as a Series of Novel SHP2 Inhibitors” (International Journal of Molecular Sciences, 2022).

Broadly, the IC50 is the midpoint of a concentration-inhibition curve.

One data set has as its system SHP2.
Test: not given
As to conditions: cited from earlier work.
Turning to `NC(=O)C(c1ccccc1)S(=O)(=O)O` (stereo not drawn) [Sulfophenyl acetic amide], the IC50 was 1.5 µM.

On to Tautomycetin, for which the IC50 is 2.9 µM.

A further data set concerns the target T1, recombinant human SHP2 protein (Homo sapiens, UniProt Q06124).
T1 sequence (Q06124 1-593): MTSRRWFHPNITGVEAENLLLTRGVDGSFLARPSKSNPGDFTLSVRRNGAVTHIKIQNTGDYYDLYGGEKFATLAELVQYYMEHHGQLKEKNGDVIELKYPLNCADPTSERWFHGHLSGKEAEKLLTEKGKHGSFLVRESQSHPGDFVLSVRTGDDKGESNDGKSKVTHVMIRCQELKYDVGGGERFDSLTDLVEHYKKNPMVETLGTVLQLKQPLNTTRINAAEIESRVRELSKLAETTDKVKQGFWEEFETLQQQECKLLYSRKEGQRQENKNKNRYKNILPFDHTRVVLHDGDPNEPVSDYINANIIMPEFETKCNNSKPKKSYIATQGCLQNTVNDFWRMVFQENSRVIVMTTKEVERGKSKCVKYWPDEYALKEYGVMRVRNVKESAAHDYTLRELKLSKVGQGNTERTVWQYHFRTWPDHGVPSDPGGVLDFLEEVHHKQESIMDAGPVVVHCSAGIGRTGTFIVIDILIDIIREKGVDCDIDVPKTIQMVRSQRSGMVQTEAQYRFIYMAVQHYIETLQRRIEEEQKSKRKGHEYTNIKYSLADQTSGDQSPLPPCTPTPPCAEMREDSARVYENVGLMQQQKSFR
The experiment in a line: SHP2 inhibition assay (pNPP substrate). Conditions: pNPP 4 mM, SHP2 240 nM, 37 °C, 30 min; means ± SD. The format is biochemical. As for the experimental part: pGEX-4T1 SHP2 WT (plasmid #8322) was purchased from Addgene. […] Then, 0.2 mM IPTG (Sangon Biotech, Shanghai, China) was added to induce the expression of protein at 30 °C for 4 h followed by centrifugation and cells collection. Cells were then broken by ultrasound in lysis buffer (20 mM Tris–HCl (pH 8.0), 100 mM KCl, 10% glycerol, 1 mM DTT, 0.5% Triton X-100) on ice. The supernatant was collected by centrifugation at 10,000× g for 15 min at 4 °C. The BeaverBeads GSH (Beaver Biosciences Inc., Guangzhou, China) washed by lysis buffer were incubated with the supernatant for 2 h at 4 °C. […] Then, the experiment was performed in a final volume of 100 μL containing 10 mM Tris–HCl (pH 7.5), 25 mM NaCl, 1 mM EDTA and 4 mM pNPP in a 96-well plate at 37 °C for 30 min. The amount of product p-nitrophenol was determined by the absorbance at 405 nm in a multimode reader (Berthold Technologies GmbH & Co.KG, Bad Wildbad, Baden Württemberg, Germany). The IC50 value was calculated by GraphPad Prism 7.0 software (GraphPad Inc, San Diego, CA, USA).
For the molecule `CCOc1ccc(Oc2ccc(C3=NN(C=O)C(c4ccc(O)c(O)c4)C3)cc2)cc1` (stereo not drawn) [Compound 4a, 5-(3,4-dihydroxyphenyl)-3-(4-(4-ethoxyphenoxy)phenyl)-4,5-dihydro-1H-pyrazole-1-carbaldehyde], the IC50 was found to be 13.3 ± 2.11 µM.

Regarding `CC(C)(C)c1ccc(Oc2ccc(C3=NN(C=O)C(c4ccc(O)c(O)c4)C3)cc2)cc1` (stereo not drawn) [Compound 4b, 3-(4-(4-(tert-butyl)phenoxy)phenyl)-5-(3,4-dihydroxyphenyl)-4,5-dihydro-1H-pyrazole-1-carbaldehyde], the IC50 was 13.7 ± 1.98 µM.

With `CCC(=O)N1N=C(c2ccc(Oc3ccccc3)cc2)CC1c1ccc(O)c(O)c1` (stereo not drawn) [Compound 4c, 1-(5-(3,4-dihydroxyphenyl)-3-(4-phenoxyphenyl)-4,5-dihydro-1H-pyrazol-1-yl)propan-1-one], the IC50 amounted to 34.2 ± 5.9 µM.

For the molecule `CCCC(=O)N1N=C(c2ccc(Oc3ccccc3)cc2)CC1c1ccc(O)c(O)c1` (stereo not drawn) [Compound 4d, 1-(5-(3,4-dihydroxyphenyl)-3-(4-phenoxyphenyl)-4,5-dihydro-1H-pyrazol-1-yl)butan-1-one], the IC50 was 9.51 ± 2.01 µM.

Take `CCOc1ccc(Oc2ccc(C3=NN(C(N)=S)C(c4ccc(O)c(O)c4)C3)cc2)cc1` (stereo not drawn) [Compound 4e, 5-(3,4-dihydroxyphenyl)-3-(4-(4-ethoxyphenoxy)phenyl)-4,5-dihydro-1H-pyrazole-1-carbothioamide]: the IC50 was determined as 5.96 ± 0.92 µM.

For `COc1ccc(C2=NN(C(N)=S)C(c3ccc(O)c(O)c3)C2)cc1` (stereo not drawn) [Compound 4f, 5-(3,4-dihydroxyphenyl)-3-(4-methoxyphenyl)-4,5-dihydro-1H-pyrazole-1-carbothioamide], the IC50 turned out to be 13.2 ± 1.89 µM.

Take `NC(=S)N1N=C(c2ccc(Oc3ccccc3)cc2)CC1c1ccc(O)c(O)c1` (stereo not drawn) [Compound 4g, 5-(3,4-dihydroxyphenyl)-3-(4-phenoxyphenyl)-4,5-dihydro-1H-pyrazole-1-carbothioamide]: the IC50 came out at 5.97 ± 0.88 µM.

For `CC(C)(C)c1ccc(Oc2ccc(C3=NN(C(N)=S)C(c4ccc(O)c(O)c4)C3)cc2)cc1` (stereo not drawn) [Compound 4h, 3-(4-(4-(tert-butyl)phenoxy)phenyl)-5-(3,4-dihydroxyphenyl)-4,5-dihydro-1H-pyrazole-1-carbothioamide], the IC50 was found to be 8.44 ± 2.03 µM.

For the molecule `NC(=S)N1N=C(c2ccc(Br)cc2)CC1c1ccc(O)c(O)c1` (stereo not drawn) [Compound 4i, 3-(4-bromophenyl)-5-(3,4-dihydroxyphenyl)-4,5-dihydro-1H-pyrazole-1-carbothioamide], the IC50 worked out at 20.4 ± 2.45 µM.

For the molecule `COc1ccc(C2=NN(C3=NC(=O)CS3)C(c3ccc(O)c(O)c3)C2)cc1` (stereo not drawn) [Compound 4j, 2-(5-(3,4-dihydroxyphenyl)-3-(4-methoxyphenyl)-4,5-dihydro-1H-pyrazol-1-yl)thiazol-4(5H)-one], the 50% inhibitory concentration (IC50) worked out at 11.4 ± 1.56 µM.

In the case of `O=C1CSC(N2N=C(c3ccc(Oc4ccccc4)cc3)CC2c2ccc(O)c(O)c2)=N1` (stereo not drawn) [Compound 4k, 2-(5-(3,4-dihydroxyphenyl)-3-(4-phenoxyphenyl)-4,5-dihydro-1H-pyrazol-1-yl)thiazol-4(5H)-one], the IC50 came out at 4.98 ± 0.77 µM.

For `CCOc1ccc(Oc2ccc(C3=NN(C4=NC(=O)CS4)C(c4ccc(O)c(O)c4)C3)cc2)cc1` (stereo not drawn) [Compound 4l, 2-(5-(3,4-dihydroxyphenyl)-3-(4-(4-ethoxyphenoxy)phenyl)-4,5-dihydro-1H-pyrazol-1-yl)thiazol-4(5H)-one], the IC50 came to 4.36 ± 0.65 µM.

For the molecule `CC(C)(C)c1ccc(Oc2ccc(C3=NN(C4=NC(=O)CS4)C(c4ccc(O)c(O)c4)C3)cc2)cc1` (stereo not drawn) [Compound 4m, 2-(3-(4-(4-(tert-butyl)phenoxy)phenyl)-5-(3,4-dihydroxyphenyl)-4,5-dihydro-1H-pyrazol-1-yl)thiazol-4(5H)-one], the IC50 was 4.94 ± 0.79 µM.

Take `O=C1CSC(N2N=C(c3ccc(Br)cc3)CC2c2ccc(O)c(O)c2)=N1` (stereo not drawn) [Compound 4n, 2-(3-(4-bromophenyl)-5-(3,4-dihydroxyphenyl)-4,5-dihydro-1H-pyrazol-1-yl)thiazol-4(5H)-one]: the IC50 is 18.5 ± 2.32 µM.

The subject of a further data set is HCT116 cells xenograft. Put plainly: Anti-tumor activity in vivo, HCT116 xenograft model. Further details: species or system BALB/c-nude mice. Conditions: 4o 25, 50 mg/kg or 5-FU 25 mg/kg, 13 days. On the procedure:
Male BALB/c-nude mice (Jinan Pengyue Experimental Animal Breeding Co., Ltd., Jinan, China), 5 weeks of age, were used. The mice were housed in a specific pathogen-free room with temperature controlled (22 ± 2 °C), humidity (55 ± 10%) and a light/dark cycle of 12 h, providing sterile food and water. The HCT116 cells xenograft model was conducted, and 1 × 10^7 HCT116 cells were subcutaneously injected into the right armpit of mice. The tumor volume of mice was measured every three days to evaluate the tumor growth. When the tumor volume reached about 100 mm^3, the mice were randomly divided into four groups (n = 6), and treated with vehicle (0.5% CMC-Na solution) or 4o (25, 50 mg/kg) by gavage once a day for 13 consecutive days. A total of 25 mg/kg 5-FU was used as a positive control. The body weight of mice was measured every three days. The length (L) and width (W) of tumors were measured by electronic caliper every three days. The volume (V) was calculated as follows: V = (L × W^2)/2. When the tumor volume reached about 1000 mm^3, the tumors were excised. Immunohistochemical analysis were used to evaluate the related protein levels.
As for `O=c1[nH]cc(F)c(=O)[nH]1` [Compound 5-FU, 5-fluorouracil, reference compound], the “Effect on body weight of tumor-bearing mice” value is “showed a decrease”.

Still in this data set, the particulars now being: 5-FU 25 mg/kg, positive drug, 13 days.
Consider `O=c1[nH]cc(F)c(=O)[nH]1` [Compound 5-FU, 5-fluorouracil, reference compound], for which the Tumor inhibition rate is 54.8%.
